According to PubChem BioAssay AID330 (DTP/NCI, 2004):
Values joined by “and” are separate entries in the source; they are usually repeats but may differ in a detail not shown here. Equal values may be shown once. Inconclusive results and toxic doses are left out.

Tested on: P388 leukemia ip, CD2F1 mice, survival T/C
Test: NCI In Vivo Anticancer Drug Screen. Data for tumor model P388 Leukemia (intraperitoneal) in CD2F1 (CDF1) mice
Settings: endpoint: median survival time, higher = longer survival
Outline: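 Mice carrying the transplanted tumor received test compound or vehicle. Survival was recorded in each group, and the value is the treated-group measurement divided by that of the vehicle-treated control group.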

[1] = dose: 50.0 mg/kg/injection, schedule: Q01DX009 (ip), vehicle: saline with Tween-80

C[CH2][Ge]([CH2]C)[CH2]/C=C\[CH2][Ge]([CH2]C)[CH2]C
T/C [1]: 94 % of control | T/C (dose: 100.0 mg/kg/injection, schedule: Q01DX009 (ip), vehicle: saline with Tween-80): 117 % of control

CC1=NNC(=O)CC1C(O)c1ccccc1 (stereo not drawn)
T/C (dose: 60.0 mg/kg/injection, schedule: Q01DX005 (ip), vehicle: saline): 114 % of control | T/C (dose: 120.0 mg/kg/injection, schedule: Q01DX005 (ip), vehicle: saline): 101 % of control | T/C (dose: 240.0 mg/kg/injection, schedule: Q01DX005 (ip), vehicle: saline): 107 % of control

CCOC(=O)CNC(=O)Sc1ccc(C(C)(C)C)cc1C
T/C (dose: 50.0 mg/kg/injection, schedule: Q01DX005 (ip), vehicle: saline + Tween-80 + alcohol): 100 % of control (2×) and 107 % of control | T/C (dose: 100.0 mg/kg/injection, schedule: Q01DX005 (ip), vehicle: saline + Tween-80 + alcohol): 110 % of control and 111 % of control and 118 % of control | T/C (dose: 200.0 mg/kg/injection, schedule: Q01DX005 (ip), vehicle: saline + Tween-80 + alcohol): 114 % of control and 120 % of control | T/C (dose: 400.0 mg/kg/injection, schedule: Q01DX005 (ip), vehicle: saline + Tween-80 + alcohol): 114 % of control

C[C@@H]1C[C@@H](O)[C@]2(O)O[C@@H]3C[C@@]4(C=O)[C@@H](CC=C5[C@@H]4CC[C@]4(C)C(C6=CC(=O)OC6)CC[C@]54O)C[C@H]3O[C@@H]2O1 (stereo partly drawn)
T/C (dose: 1.75 mg/kg/injection, schedule: Q01DX005 (ip), vehicle: saline with Tween-80): 94 % of control | T/C (dose: 3.5 mg/kg/injection, schedule: Q01DX005 (ip), vehicle: saline with Tween-80): 100 % of control | T/C (dose: 7.0 mg/kg/injection, schedule: Q01DX005 (ip), vehicle: saline with Tween-80): 98 % of control

c1cc(-c2cc3cc(C4=NCCN4)ccc3s2)ccc1C1=NCCN1
T/C (dose: 25.0 mg/kg/injection, schedule: Q04DX003 (ip), vehicle: saline): 115 % of control | T/C (dose: 50.0 mg/kg/injection, schedule: Q04DX003 (ip), vehicle: saline): 111 % of control | T/C (dose: 100.0 mg/kg/injection, schedule: Q04DX003 (ip), vehicle: saline): 98 % of control

C=CCCCCC1CC2CCCCN2O1 (stereo not drawn)
T/C (dose: 50.0 mg/kg/injection, schedule: Q01DX009 (ip), vehicle: Klucel (hydroxypropylcellulose) (HPC)): 94 % of control | T/C (dose: 100.0 mg/kg/injection, schedule: Q01DX009 (ip), vehicle: Klucel (hydroxypropylcellulose) (HPC)): 103 % of control | T/C (dose: 200.0 mg/kg/injection, schedule: Q01DX009 (ip), vehicle: Klucel (hydroxypropylcellulose) (HPC)): 113 % of control

NNP(=O)(Oc1ccccc1)Oc1ccccc1
T/C (dose: 3.12 mg/kg/injection, schedule: Q01DX009 (ip), vehicle: saline with Tween-80): 110 % of control | T/C (dose: 6.25 mg/kg/injection, schedule: Q01DX009 (ip), vehicle: saline with Tween-80): 101 % of control | T/C (dose: 12.5 mg/kg/injection, schedule: Q01DX009 (ip), vehicle: saline with Tween-80): 106 % of control | T/C (dose: 25.0 mg/kg/injection, schedule: Q01DX009 (ip), vehicle: saline with Tween-80): 109 % of control and 110 % of control

O=c1[nH]c(=O)n([C@H]2CCCO2)cc1F
T/C (dose: 44.0 mg/kg/injection, schedule: Q01DX009 (ip), vehicle: Klucel (hydroxypropylcellulose) (HPC)): 111 % of control | T/C [1]: 104 % of control | T/C (dose: 59.0 mg/kg/injection, schedule: Q01DX009 (ip), vehicle: Klucel (hydroxypropylcellulose) (HPC)): 114 % of control | T/C (dose: 90.0 mg/kg/injection, schedule: Q01DX009 (ip), vehicle: Klucel (hydroxypropylcellulose) (HPC)): 124 % of control | T/C (dose: 142.0 mg/kg/injection, schedule: Q04DX003 (ip), vehicle: Klucel (hydroxypropylcellulose) (HPC)): 109 % of control | T/C (dose: 189.0 mg/kg/injection, schedule: Q04DX003 (ip), vehicle: Klucel (hydroxypropylcellulose) (HPC)): 115 % of control | T/C (dose: 200.0 mg/kg/injection, schedule: Q01DX009 (ip), vehicle: saline with Tween-80): 93 % of control | T/C (dose: 201.0 mg/kg/injection, schedule: Q01DX009 (ip), vehicle: Klucel (hydroxypropylcellulose) (HPC)): 95 % of control | T/C (dose: 316.0 mg/kg/injection, schedule: Q01DX001 (ip), vehicle: Klucel (hydroxypropylcellulose) (HPC)): 107 % of control | T/C (dose: 421.0 mg/kg/injection, schedule: Q01DX001 (ip), vehicle: Klucel (hydroxypropylcellulose) (HPC)): 115 % of control | T/C (dose: 641.0 mg/kg/injection, schedule: Q01DX001 (ip), vehicle: Klucel (hydroxypropylcellulose) (HPC)): 120 % of control | T/C (dose: 645.0 mg/kg/injection, schedule: Q04DX003 (ip), vehicle: Klucel (hydroxypropylcellulose) (HPC)): 120 % of control

COc1ccc(C2OC(=N)C(=S)N2C)c(OC)c1 (stereo not drawn)
T/C (dose: 60.0 mg/kg/injection, schedule: Q01DX005 (ip), vehicle: Klucel (hydroxypropylcellulose) (HPC)): 102 % of control | T/C (dose: 120.0 mg/kg/injection, schedule: Q01DX005 (ip), vehicle: Klucel (hydroxypropylcellulose) (HPC)): 104 % of control | T/C (dose: 240.0 mg/kg/injection, schedule: Q01DX005 (ip), vehicle: Klucel (hydroxypropylcellulose) (HPC)): 101 % of control

CNC(=O)OCc1c(COC(=O)NC)c(C)n(-c2ccc(F)cc2)c1C
T/C (dose: 25.0 mg/kg/injection, schedule: Q01DX009 (ip), vehicle: saline): 155 % of control

Nc1c(I)cc(CC(N)C(=O)O)cc1I (stereo not drawn)
T/C (dose: 50.0 mg/kg/injection, schedule: Q01DX009 (ip), vehicle: saline): 94 % of control | T/C (dose: 100.0 mg/kg/injection, schedule: Q01DX009 (ip), vehicle: saline): 86 % of control | T/C (dose: 200.0 mg/kg/injection, schedule: Q01DX009 (ip), vehicle: saline): 89 % of control

O=c1ccnc(Nc2ccc[nH]c2=S)[nH]1
T/C (dose: 50.0 mg/kg/injection, schedule: Q01DX005 (ip), vehicle: Klucel (hydroxypropylcellulose) (HPC)): 100 % of control | T/C (dose: 60.0 mg/kg/injection, schedule: Q01DX005 (ip), vehicle: saline with Tween-80): 105 % of control | T/C (dose: 100.0 mg/kg/injection, schedule: Q01DX005 (ip), vehicle: Klucel (hydroxypropylcellulose) (HPC)): 99 % of control | T/C (dose: 120.0 mg/kg/injection, schedule: Q01DX005 (ip), vehicle: saline with Tween-80): 105 % of control | T/C (dose: 200.0 mg/kg/injection, schedule: Q01DX005 (ip), vehicle: Klucel (hydroxypropylcellulose) (HPC)): 93 % of control | T/C (dose: 240.0 mg/kg/injection, schedule: Q01DX005 (ip), vehicle: saline with Tween-80): 100 % of control

COc1cc([C@@H]2c3cc4c(cc3[C@H](OC(=O)c3ccncc3)[C@H]3COC(=O)[C@H]23)OCO4)cc(OC)c1OC
T/C (dose: 6.25 mg/kg/injection, schedule: Q01DX005 (ip), vehicle: Klucel (hydroxypropylcellulose) (HPC)): 101 % of control | T/C (dose: 12.5 mg/kg/injection, schedule: Q01DX005 (ip), vehicle: Klucel (hydroxypropylcellulose) (HPC)): 104 % of control | T/C (dose: 25.0 mg/kg/injection, schedule: Q01DX005 (ip), vehicle: Klucel (hydroxypropylcellulose) (HPC)): 118 % of control

CC(C)=O
T/C (dose: 2.0 % in 0.5 ml injection vol, schedule: Q01DX009 (ip), vehicle: water): 97 % of control | T/C (dose: 4.0 % in 0.5 ml injection vol, schedule: Q01DX009 (ip), vehicle: water): 100 % of control and 101 % of control | T/C (dose: 8.0 % in 0.5 ml injection vol, schedule: Q01DX009 (ip), vehicle: water): 102 % of control and 106 % of control | T/C (dose: 16.0 % in 0.5 ml injection vol, schedule: Q01DX009 (ip), vehicle: water): 105 % of control

CCNc1nn2ccccc2c1/C=C(/C#N)C(=O)OCC
T/C (dose: 25.0 mg/kg/injection, schedule: Q01DX001 (ip), vehicle: saline with Tween-80): 94 % of control | T/C (dose: 50.0 mg/kg/injection, schedule: Q01DX001 (ip), vehicle: saline with Tween-80): 91 % of control | T/C (dose: 100.0 mg/kg/injection, schedule: Q01DX001 (ip), vehicle: saline with Tween-80): 91 % of control | T/C (dose: 200.0 mg/kg/injection, schedule: Q01DX001 (ip), vehicle: saline with Tween-80): 91 % of control

CCN1C=C/C(=C\C=C/c2cc[n+](CC)c3ccccc23)c2ccccc21
T/C (dose: 0.15 mg/kg/injection, schedule: Q04DX003 (ip), vehicle: saline): 118 % of control | T/C (dose: 0.22 mg/kg/injection, schedule: Q04DX003 (ip), vehicle: saline): 118 % of control | T/C (dose: 0.33 mg/kg/injection, schedule: Q04DX003 (ip), vehicle: saline): 122 % of control

OC(C(c1ccccc1)c1ccccn1)(C(F)(F)F)C(F)(F)F (stereo not drawn)
T/C (dose: 100.0 mg/kg/injection, schedule: Q04DX003 (ip), vehicle: saline with Tween-80): 100 % of control | T/C (dose: 200.0 mg/kg/injection, schedule: Q04DX003 (ip), vehicle: saline with Tween-80): 95 % of control | T/C (dose: 400.0 mg/kg/injection, schedule: Q04DX003 (ip), vehicle: saline with Tween-80): 95 % of control

COc1cc2cc(c1Cl)NC(=O)CC(OC(=O)C(C)N(C)C(=O)C(C)C)C1(C)OC1C(C)C1CC(O)(NC(=O)O1)C(OC)/C=C/C=C(C)C2OC (stereo not drawn)
T/C (dose: 8.0 micrograms/kg/injection, schedule: Q01DX009 (ip), vehicle: distilled water + Tween-80 + alcohol): 161 % of control | T/C (dose: 16.0 micrograms/kg/injection, schedule: Q01DX009 (ip), vehicle: distilled water + Tween-80 + alcohol): 155 % of control and 179 % of control | T/C (dose: 32.0 micrograms/kg/injection, schedule: Q01DX009 (ip), vehicle: distilled water + Tween-80 + alcohol): 154 % of control and 184 % of control | T/C (dose: 64.0 micrograms/kg/injection, schedule: Q01DX009 (ip), vehicle: distilled water + Tween-80 + alcohol): 86 % of control
